Data on 13 compounds can be found in patent US20180028507A1, “3-CARBAMOYLPHENYL-4-CARBOXAMIDE AND ISOPHTALAMIDE DERIVATIVES AS INHIBITORS OF THE WNT SIGNALLING PATHWAY” (Bayer Pharma Aktiengesellschaft, priority 2015, published 2018).

SMILES strings stand for the structures.

Assay [1] relates to HCT116 cells cotransfected with the FOP control vector (non-functional TCF elements). The assay can be described thus: HCT116 FOPFlash control reporter assay (FOP control vector, luciferase). Format: cell-based. To be noted: Homo sapiens, HCT-116, 36 hours incubation, dilution series 50 μM to 15 nM, luciferase expression. As for the experimental part: In a parallel approach, HCT116 cells were cotransfected with the FOP control vector and pcDNA3. The FOP vector is identical to the TOP construct, but it contains instead of functional TCF elements a randomized, non-functional sequence. For this transfection a stable transfected cell line was generated as well.
(§1) In preparation of the assay, the two cell lines were plated 24 hours before at 10000 cells per well of a 384 micro titre plate (MTP) in 30 μL growth medium. Selective inhibitory activity for small molecules on the mutated Wnt pathway was determined after parallel incubation of both (TOP and FOP) HCT116 reporter cell lines with a compound dilution series from 50 μM to 15 nM in steps of 3.16-fold dilutions in CAFTY buffer (130 mM NaCl, 5 mM KCl, 20 mM HEPES, 1 mM MgCl2, 5 mM NaHCO3, pH 7.4) containing 2 mM Ca^2+ and 0.01% BSA. The compounds were thereby serially prediluted in 100% DMSO and thereafter in addition 50 fold into the CAFTY compound dilution buffer (described above). From this dilution 10 μL were added to the cells in 30 μL growth medium and incubated for 36 hours at 37° C. and 5% CO2.

In assay [2] the test system is constitutive active colorectal cancer cell (CRC) Wnt pathway. Kind of assay: HCT116 TOPFlash cellular reporter assay (Super TopFlash vector, luciferase). The assay is classed as cell-based. To be noted: Homo sapiens, HCT-116; HCT116 Super TopFlash reporter cells, 36 hours incubation, dilution series 50 μM to 15 nM, luciferase expression. As for the experimental part:
In order to discover and characterize small molecules which inhibit the constitutive active colorectal cancer cell (CRC) Wnt pathway, a cellular reporter assay was employed. The corresponding assay cell was generated by transfection of the colorectal cancer cell line HCT116 (ATCC, #CCL-247) with the Super TopFlash vector (Morin, Science 275, 1997, 1787-1790; Molenaar et al., Cell 86 (3), 1996, 391-399). The HCT116 cell line is cultivated at 37° C. and 5% CO2 in DMEM/F-12 (Life Technologies, #11320-074), supplemented with 2 mM glutamine, 20 mM HEPES, 1.4 mM pyruvate, 0.15% Na-bicarbonate and 10% foetal bovine serum (GIBCO, #10270), this cancer cell line is pathophysiological relevant since it carries a deletion of position S45 in the β-catenin gene, leading to constitutive active Wnt signaling. Stable transfectants were generated by cotransfection with pcDNA3 and selection of stable transfected cells with 1 mg/ml G418.
as §1
For orientation: In a reporter assay the amount or activity of a reporter protein is the signal.

Usually IC50 stands for the concentration at which inhibition is half-maximal. In the case of `Nc1ccc(CNC(=O)c2cc(C(=O)Nc3ccc(-c4ccccc4F)nc3)ccc2OC(F)(F)F)cn1` [Example 51, N^3-[(6-aminopyridin-3-yl)methyl]-N^1-[6-(2-fluorophenyl)pyridin-3-yl]-4-(trifluoromethoxy) isophthalamide], the IC50 in assay [1] came to 14 µM; in assay [2] it was 1.8 µM.
For `COc1ccc(NC(=O)c2ccc(-c3ccccc3)cc2)cc1C(=O)NCc1ccccc1` [Example 33, N-[3-(benzylcarbamoyl)-4-methoxyphenyl]biphenyl-4-carboxamide] the same measures were not below 50 µM and 3.35 µM.
For `CC(C)(C)OC(=O)Nc1ccc(CNC(=O)c2cc(C(=O)Nc3ccc(-c4ccccc4)cc3)ccc2OC(F)(F)F)cn1` [Example 24, tert-butyl [5-({[5-(biphenyl-4-ylcarbamoyl)-2-(trifluoromethoxy)benzoyl]amino}methyl)pyridin-2-yl]carbamate], in that order: 23 µM and 0.835 µM.
For the compound `COc1ccc(C(=O)Nc2ccc(-c3ccccc3)cc2)cc1C(=O)Nc1ccncc1` [Example 11, N^1-(biphenyl-4-yl)-4-methoxy-N^3-(pyridin-4-yl)isophthalamide], the IC50 in assay [1] amounted to 11.5 µM; in assay [2] it was 0.415 µM.
Regarding `COc1cc(NC(=O)c2cc(C(=O)Nc3ccc(-c4ccccc4)cc3)ccc2OC)ccn1` [Example 38, N^1-(biphenyl-4-yl)-4-methoxy-N^3-(2-methoxypyridin-4-yl)isophthalamide], the concentration for half-maximal inhibition (IC50) worked out at 21 µM in assay [1] and 1.11 µM in assay [2].
For `COc1ccc(C(=O)Nc2ccc(-c3ccccc3F)nc2)cc1C(=O)NCc1cccnc1` [Example 41, N^1-[6-(2-fluorophenyl)pyridin-3-yl]-4-methoxy-N^3-(pyridin-3-ylmethyl)isophthalamide], in that order: not below 50 µM and 1.6 µM.
For `O=C(Nc1ccc(-c2ccccc2F)nc1)c1ccc(OC(F)(F)F)c(C(=O)Nc2ccncc2F)c1` [Example 42, N^1-[6-(2-fluorophenyl)pyridin-3-yl]-N^3-(3-fluoropyridin-4-yl)-4-(trifluoromethoxy) isophthalamide], in that order: not below 50 µM and 2.13 µM.
For `Cc1ncccc1NC(=O)c1cc(C(=O)Nc2ccc(-c3ccccc3F)nc2)ccc1OC(F)(F)F` [Example 58, N^1-[6-(2-fluorophenyl)pyridin-3-yl]-N^3-(2-methylpyridin-3-yl)-4-(trifluoromethoxy) isophthalamide], in that order: 6.6 µM and 1.9 µM.
Regarding `COc1ccc(C(=O)Nc2ccc(-c3ccccc3F)nc2)cc1C(=O)Nc1cncc(C)c1` [Example 63, N^1-[6-(2-fluorophenyl)pyridin-3-yl]-4-methoxy-N^3-(5-methylpyridin-3-yl)isophthalamide], the IC50 in assay [1] was not below 50 µM; in assay [2], 26.7 µM.
For `COc1ccc(C(=O)Nc2ccc(-c3ccccc3F)nc2)cc1C(=O)Nc1ccncc1` [Example 56, N^1-[6-(2-fluorophenyl)pyridin-3-yl]-4-methoxy-N^3-(pyridin-4-yl)isophthalamide] the same measures were 8 µM and 1.8 µM.
`COc1ccc(C(=O)Nc2ccc(-c3ccccc3F)nc2)cc1C(=O)Nc1ccncc1C` [Example 46, N^1-[6-(2-fluorophenyl)pyridin-3-yl]-4-methoxy-N^3-(3-methylpyridin-4-yl)isophthalamide]: the figures for the IC50 in assay [1] and in assay [2] were not below 50 µM and 2.23 µM, respectively.
For `COc1cnccc1NC(=O)c1cc(C(=O)Nc2ccc(-c3ccccc3)cc2)ccc1OC(F)(F)F` [Example 23, N^1-(biphenyl-4-yl)-N^3-(3-methoxypyridin-4-yl)-4-(trifluoromethoxy)isophthalamide], in that order: not below 50 µM and 0.243 µM.
For `COc1ccc(C(=O)Nc2ccc(-c3ccccc3F)nc2)cc1C(=O)Nc1cccnc1` [Example 60, N^1-[6-(2-fluorophenyl)pyridin-3-yl]-4-methoxy-N^3-(pyridin-3-yl)isophthalamide], in that order: 11 µM and 6.05 µM.
